Tests used:
[1] = system: tobacco T2 gene (T2 mRNA); test: Northern analysis of T2 mRNA in roots of chemically treated tobacco; type: in vivo, N. tabacum (Petite Havana SRI); conditions: treated vs control plants
Source text: The procedures described for the isolation of the petunia cDNA clone P6.1 in Example 4 were repeated using N. tabacum (Petite Havana SRI) as the starting plant material. Differential screening of the resulting tobacco cDNA library prepared using poly(A)^+ RNA from the roots of N-(aminocarbonyl)-2-chlorobenzenesulfonamide-treated tobacco plants identified a cDNA clone representing an N-(aminocarbonyl)-2-chlorobenzenesulfonamide-inducible mRNA species. This clone was designated T2.
A Northern blot of total RNA from the roots of untreated and N-(aminocarbonyl)-2-chlorobenzenesulfonamide-treated tobacco plants was probed with nick-translated T2.1 to determine the size of the corresponding T2 mRNA. The methods used for these procedures were described in Example 4.

[2] = system: petunia P6.1 gene (and endogenous tobacco T2.1 gene); test: RNAse protection analysis of petunia P6.1 gene expression in transgenic tobacco roots and callus; type: in vivo, tobacco (SR1)
Experimental: Tobacco (SR1) was used as the recipient for transformation. In vitro grown leaf material was sliced into strips using a scalpel. The strips were dipped into Agrobacterium tumefaciens containing the construct P627 (bacterial concentration was 0.2 A550). Leaf pieces were placed on media containing MS major salts, MS minor salts, B5 vitamins, MS iron, 3% sucrose, 0.1 μg/l NAA, […], 0.7% TC agar, pH 5.8 and incubated for 2-3 days under growlights. Leaf material was removed and washed by placing in liquid culture medium containing […] and rotating gently for 3-4 hours. The leaf pieces were then placed on medium containing 100 μg/l carbinicillin and 300 mg/l kanamycin and transferred every 2 weeks. Shoots appeared after 2-8 weeks and were transferred to rooting medium (0.5× MS major salts, MS minor salts, iron, 1% sucrose, 0.8% agar, and 2 μM indolebutyric acid). Eight independent transformed plants were regenerated. […]
The inducibility of the P6.1 gene was also examined in callus tissue derived from transformed tobacco plants. […] The inducibility of both the introduced petunia P6 gene and the endogenous tobacco T2.1 gene by N-(aminocarbonyl)-2-chlorobenzanesulfonamide treatment was evaluated using the RNAse protection analysis as described above. […]

Compound: NC(=O)NS(=O)(=O)c1ccccc1Cl
- hybridization of T2.1 to root RNA (Northern blot) [1]: hybridized to an mRNA of 800 nt
- expression of petunia P6 gene and endogenous tobacco T2.1 gene in callus (RNAse protection) ([2]; callus from transformed tobacco, 100 mg/l, 6 and 20 hours): strong expression of both genes was observed
- inducible expression of the transferred petunia P6.1 gene in roots (RNAse protection) ([2]; transgenic tobacco (P627), hydroponic 200 mg/l, six hours): All eight transformants demonstrated inducible expression

From US5608143A, “External regulation of gene expression” (E. I. Du Pont de Nemours and Company, priority 1994, dated 1997)
